Where a name gives a salt, the structure may show the parent alone.
Each molecule was assayed against T1, guinea-pig B2 receptor (Cavia porcellus, UniProt O70526) (assay: [3H]-bradykinin binding to guinea-pig ileum membranes). Conditions: test compound at 10^-6 M; [3H]-bradykinin 120 pM; 50 μg ileum membrane protein; 90 min at 20° C.; read-out: Activity (%): percentage inhibition of the binding of [3H]-bradykinin.
T1 construct: Ileum segments are isolated from male guinea-pigs; tissue Iffa Credo, l'Arbresle, France (supplier of the animals); host or cells: ileum membranes of male Dunkin-Hartley guinea-pigs
T1 sequence (O70526 1-372): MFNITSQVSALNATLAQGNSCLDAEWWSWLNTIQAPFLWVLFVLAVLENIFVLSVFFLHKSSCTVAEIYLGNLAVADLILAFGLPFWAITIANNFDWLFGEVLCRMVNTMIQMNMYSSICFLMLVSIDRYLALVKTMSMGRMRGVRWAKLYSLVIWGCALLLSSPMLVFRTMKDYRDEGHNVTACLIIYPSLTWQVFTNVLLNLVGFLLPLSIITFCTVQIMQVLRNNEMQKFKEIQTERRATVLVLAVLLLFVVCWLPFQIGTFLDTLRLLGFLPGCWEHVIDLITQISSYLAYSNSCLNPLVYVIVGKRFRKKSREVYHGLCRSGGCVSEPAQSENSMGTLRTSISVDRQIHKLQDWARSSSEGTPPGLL
Protocol: The following pharmacological test is used: Ileum segments are isolated from male guinea-pigs [of the Dunkin-Hartley strain (Iffa Credo, l'Arbresle, France)] and ground in the following TES buffer: TES 25 mM, 1,10-phenanthroline 1 mM (pH 6.8), bacitracin 140 μg/ml, BSA 1 g/l. The membranes are then isolated by centrifugation (18,000 rpm; 20 min; 4° C.). The binding studies are carried out in this TES buffer using [^3 H]-bradykinin (120 pM) and 50 μg of membrane protein per test (final volume 500 μl) with an equilibrium time of 90 min at 20° C. The percentage inhibition of the binding of [^3 H]-bradykinin is then determined in the presence of one of the test compounds according to the invention at a concentration of 10^-6 M.
The results obtained from these tests (shown as "activity") are collated in Table I below with reference to the Examples given in the description.

SMILES	inhibition at 1 µM [%]
Cc1cc(C)c2cccc(OCc3c(Cl)ccc(S(=O)(=O)N4CCC[C@H]4C(=O)NCc4ccc(C(=N)N)cc4)c3Cl)c2n1 [Example 6, 1-[[3-[(2,4-Dimethylquinolin-8-yl)oxymethyl]-2,4-dichlorophenyl]sulfonyl]-N-[4-(aminoiminomethyl)phenylmethyl]-2(S)-pyrrolidinecarboxamide bis(methanesulfonate)]	100
Cc1cc(C)c2cccc(OCc3c(Cl)ccc(S(=O)(=O)N4CCC[C@H]4C(=O)NCc4cccc(C(=N)N)c4)c3Cl)c2n1 [Example 2, 1-[[3-[(2,4-Dimethylquinolin-8-yl)oxymethyl]-2,4-dichlorophenyl]sulfonyl]-N-[3-(aminoiminomethyl)phenylmethyl]-2(S)-pyrrolidinecarboxamide dihydrochloride]	100
Cc1cc(C)c2cccc(OCc3c(Cl)ccc(S(=O)(=O)N4CCC[C@H]4C(=O)N4CCN(C(=O)c5ccc(C(=N)N)cc5)CC4)c3Cl)c2n1 [Example 12, 1-[[3-[(2,4-Dimethylquinolin-8-yl)oxymethyl]-2,4-dichlorophenyl]sulfonyl]-2(S)-[[4-[4-(aminoiminomethyl)benzoyl]piperazin-1-yl]carbonyl]pyrrolidine dihydrochloride]	99.3
Cc1ccc2cccc(OCc3c(Cl)ccc(S(=O)(=O)N4CCC[C@H]4C(=O)NCc4ccc(C(=N)N)cc4)c3Cl)c2n1 [Example 8, 1-[[3-[(2-Methylquinolin-8-yl)oxymethyl]-2,4-dichlorophenyl]sulfonyl]-N-[4-(aminoiminomethyl)phenylmethyl]-2(S)-pyrrolidinecarboxamide dihydrochloride]	96.6
Cc1cc(C)c2cccc(OCc3c(Cl)ccc(S(=O)(=O)N4CCC[C@H]4C(=O)N(C)Cc4ccc(C(=N)N)cc4)c3Cl)c2n1 [Example 4, 1-[[3-[(2,4-Dimethylquinolin-8-yl)oxymethyl]-2,4-dichlorophenyl]sulfonyl]-N-methyl-N-[4-(aminoiminomethyl)phenylmethyl]-2(S)-pyrrolidinecarboxamide dihydrochloride]	97.8
Cc1ccc2cccc(OCc3c(Cl)ccc(S(=O)(=O)N4CCC[C@H]4C(=O)Nc4cccc(C(=N)N)c4)c3Cl)c2n1 [Example 10, 1-[[3-[(2-Methylquinolin-8-yl)oxymethyl]-2,4-dichlorophenyl]sulfonyl]-N-[3-(aminoiminomethyl)phenyl]-2(S)-pyrrolidinecarboxamide dihydrochloride]	100

Continued, values first:

inhibition at 1 µM [%]	SMILES
100	Cc1cc(C)c2cccc(OCc3c(Cl)ccc(S(=O)(=O)N4CCC[C@H]4C(=O)NC4CCN(C(=O)c5ccc(C(=N)N)cc5)CC4)c3Cl)c2n1 [Example 26, 1-[[3-[(2,4-Dimethylquinolin-8-yl)oxymethyl]-2,4-dichlorophenyl]sulfonyl]-N-[1-[4-(aminoiminomethyl)benzoyl]piperidin-4-yl]-2(S)-pyrrolidinecarboxamide bis(methanesulfonate)]
100	Cc1ccc2cccc(OCc3c(Cl)ccc(S(=O)(=O)N4CCC[C@H]4C(=O)N4CCN(C(=O)Cc5ccc(C(=N)N)cc5)CC4)c3Cl)c2n1 [Example 20, 1-[[3-[(2-Methylquinolin-8-yl)oxymethyl]-2,4-dichlorophenyl]sulfonyl]-2(S)-[[4-[2-[4-(aminoiminomethyl)phenyl-1-oxoethyl]piperazin-1-yl]carbonyl]pyrrolidinedihydrochloride]
100	Cc1ccc2cccc(OCc3c(Cl)ccc(S(=O)(=O)N4CCC[C@H]4C(=O)N4CCN(C(=O)c5ccc(C(=N)N)cc5)CC4)c3Cl)c2n1 [Example 18, 1-[[3-[(2-Methylquinolin-8-yl)oxymethyl]-2,4-dichlorophenyl]sulfonyl]-2(S)-[[4-[4-(aminoiminomethyl)benzoyl]piperazin-1-yl]carbonyl]pyrrolidine dihydrochloride]
98.9	Cc1ccc2cccc(OCc3c(Cl)ccc(S(=O)(=O)N4CCC[C@H]4C(=O)NC4CCN(C(=O)c5ccc(C(=N)N)cc5)CC4)c3Cl)c2n1 [Example 24]
98	Cc1cc(C)c2cccc(OCc3c(Cl)ccc(S(=O)(=O)N4CCC[C@H]4C(=O)NC4CCN(C(=O)COc5ccc(C(=N)N)cc5)CC4)c3Cl)c2n1 [Example 28]
99.3	Cc1cc(C)c2cccc(OCc3c(Cl)ccc(S(=O)(=O)N4CCC[C@H]4C(=O)NCC4CCN(C(=O)COc5ccc(C(=N)N)cc5)CC4)c3Cl)c2n1 [Example 30, 1-[[3-[(2,4-Dimethylquinolin-8-yl)oxymethyl]-2,4-dichlorophenyl]sulfonyl]-N-[[1-[2-[4-(aminoiminomethyl)phenoxy]-1-oxoethyl]piperidin-4-yl]methyl]-2(S)-pyrrolidinecarboxamide bis(methanesulfonate)]
100	Cc1ccc2cccc(OCc3c(Cl)ccc(S(=O)(=O)N4CCC[C@H]4C(=O)N4CCN(C(=O)COc5ccc(C(=N)N)cc5)CC4)c3Cl)c2n1 [Example 22, 1-[[3-[(2-Dimethylquinolin-8-yl)oxymethyl]-2,4-dichlorophenyl]sulfonyl]-2(S)-[4-[2-[4-(aminoiminomethyl)phenoxyl-1-oxoethyl]piperazin-1-yl]carbonyl]pyrrolidine dihydrochloride]
100	Cc1cc(C)c2cccc(OCc3c(Cl)ccc(S(=O)(=O)N4CCC[C@H]4C(=O)N4CCN(C(=O)COc5ccc(C(=N)N)cc5)CC4)c3Cl)c2n1 [Example 16, 1-[[3-[(2,4-Dimethylquinolin-8-yl)oxymethyl]-2,4-dichlorophenyl]sulfonyl]-2(S)-[[4-[2-[4-(aminoiminomethyl)phenoxyl]-1-oxoethyl]piperazin-1-yl]carbonyl]pyrrolidine dihydrochloride]
100	Cc1cc(C)c2cccc(OCc3c(Cl)ccc(S(=O)(=O)N4CCC[C@H]4C(=O)N4CCN(C(=O)Cc5ccc(C(=N)N)cc5)CC4)c3Cl)c2n1 [Example 14, 1-[[3-[(2,4-Dimethylquinolin-8-yl)oxymethyl]-2,4-dichlorophenyl]sulfonyl]-(S)-[[4-[2-[4-(aminoiminomethyl)phenyl]-1-oxoethyl]piperazin-1-yl]carbonyl]pyrrolidine dihydrochloride]
